Patent publication US5985893A, “Physically stable solid form of a fluoroquinolone” (Pharmacia & Upjohn Company, priority 1996, dated 1999)
Several values for one entry are separate records, joined by “and”; a condition that tells them apart may be missing. Equal values may be shown once.

Experiments:
[1] = Solubility of the quinolone, Forms I and III, in ethyl acetate; type: physicochemical; settings: 20° C, two values given
Protocol: Bulk drug samples are prepared by dissolving the material in mobile phase at a final concentration of approximately 0.25 to 0.5 mg/ml. For solubility experiments, 100 mcl aliquots of ethyl acetate solutions are withdrawn and placed directly into HPLC autosampler vials. A gentle stream of nitrogen gas is used to evaporate the solvent in the sample vials. The solids are reconstituted with 0.5 ml of HPLC mobile phase prior to analysis.
Solubilities are measured in ethyl acetate. Five to ten milligrams of bulk drug are placed into an amber autoinjector vial, and 3.0 ml of ethyl acetate are added. The vials are capped and shaken for intervals up to 24 hours at room temperature using a Burrell model BB wrist-action shaker. Aliquots are withdrawn from the supernate after centrifugation. The final sample is taken from a quiescent solution which had not been shaken since the 24 hour timepoint.
The solubilities of Forms I and III were determined in ethyl acetate at room temperature; the solubility data for each form was gathered simultaneously, to assure that each form's solubility was measured under identical conditions. Ethyl acetate was employed as an aprotic solvent yielding fairly low equilibrium solubilities of the quinolone; ethyl acetate has been used to evaluate the difference in free energy of polymorphic forms of an antinociceptive drug, as described by K. Raghavan et al., J. Pharm. Biomed. Anal. Vol.12 (6), pp. 777-785 (1994). Under the assumption that the solubilities in TABLE S are consistent with the dilute solution limit, we can use the following expression to calculate the difference in Gibbs free energy between Form I and Form III: [formula] where "sx " is the solubility of Form x in a sufficiently dilute solution, R is the gas constant, and T is the absolute temperature. Using the data in Table 1, we find that the Gibbs free energy of Form III is lower than that of Form I by 7.7±0.2 kJ/mole.

[2] = Isothermal calorimetry (ITC) of Form I to Form III conversion; type: physicochemical
Protocol: Isothermal calorimetry (ITC) experiments are conducted using a model 2277 microcalorimeter made by ThermoMetric (see Suurkuusk, J.:Wadso, I. Chem. Scr. (1982) Vol. 20 pp. 155-163). The Digitam® version 2.1 software from Thermometric is used to display the data and to integrate the total heat obtained from the samples. Heat flow is monitored as a function of time at 60° C. and at 40° C. Both glass and stainless steel ampules are used to hold the solid samples and the reference material (quartz sand). Samples are thermally equilibrated for a period ranging from 15 minutes (glass ampules) to 1 hour (stainless steel ampules) prior to recording thermal data. The weight of the samples ranged from about 75 to 300 mg. Samples in glass ampules are equilibrated via the isopiestic method at 53% or 75% RH in chambers containing saturated solutions of sodium chloride or calcium nitrate tetrahydrate. The ampules are capped immediately after removing the samples. Other samples are equilibrated using "microhygrostats" containing small quantities of saturated salt solutions which are sealed within the ampules. This arrangement provided for nearly constant relative humidity as the crystal conversion proceeded.
We therefore studied the transformation of samples after equilibration at […] and 75% RH. […] HPLC analysis of the reaction product confirmed that the 60° C. ITC profiles contained negligible contributions from chemical decomposition.
A detailed explanation of FIG. 9 follows. […] Trace (a) is recorded from a sample of Form I equilibrated to 75% relative humidity before sealing the sample container and exposing it to the 60° C. conditions in the calorimeter. Trace (b) is recorded for a sample of Form I at 60° C., but a 75% relative humidity "microhygrostat" is placed in the sample container just prior to recording the data. The conversion is delayed from that of trace (a) due to the fact that the water must be transported from the microhygrostat to the Form I crystals during the experiment. Trace (c) is recorded for a sample of Form I at 60° C., but the sample was equilibrated at 53% relative humidity prior to sealing the sample container.
This trace results from placing a 75% relative humidity microhygrostat into the sample container just prior to recording the data. The sample is held at 40° C. in the calorimeter; the heat flow results as the Form I material converts to Form III.

Solubility, concentration ([1]; 1 hour, 60 min): 2890 µg/mL and 2780 µg/mL | Solubility, concentration ([1]; 2 hours, 120 min): 2180 µg/mL and 2990 µg/mL | Solubility, concentration ([1]; 4.5 hours, 270 min): 3010 µg/mL and 3110 µg/mL | Solubility, concentration ([1]; 18 hours, 1080 min): 3020 µg/mL and 3080 µg/mL | Solubility, concentration ([1]; 24 hours, 1440 min): 3240 µg/mL and 3320 µg/mL | Solubility, concentration ([1]; 67.5 hours (not shaken after 24 hours), 4050 min): 3220 µg/mL and 3240 µg/mL | Conversion exotherm, beginning ([2]; 40° C, 75% RH microhygrostat): about 6 hours | Conversion exotherm, end ([2]; 40° C, 75% RH microhygrostat): about 50 hours | Integrated enthalpy change, low moisture sample ([2]; 60° C, after 80 hours, mixture of Forms I and III): about 10 J/g | Final state of high moisture sample (in words) ([2]; 60° C, equilibrated at 75% RH, by XRD and DSC): converted completely to Form III | Initial water content of Form I sample ([2]; before ITC at 40° C): 0.54% | Lowest temperature at which conversion of Form I to Form III was observed ([2]; microcalorimeter): 40 °C
SMILES: CN[C@@H](C)[C@@H]1CCN(c2c(F)cc3c(=O)c(C(=O)O)cn(C4CC4)c3c2OC)C1 [Form I, [S-(R*,S*)]-1-cyclopropyl-6-fluoro-1,4-dihydro-8-methoxy-7-[3-[1-(methylamino)ethyl]-1-pyrrolidinyl]-4-oxo-3-quinolinecarboxylic acid]
Rate of conversion Form I to Form III, dependence on humidity ([2]; 60° C, 51% vs 75% RH): slower at 51% RH than at 75% RH by about two orders of magnitude | Conversion of Form I to Form III under dry conditions (in words) ([2]; > 7 days at 40° C./50% RH or 5 days at 60° C.): did not convert to Form III under dry conditions, even after greater than 7 days at 40° C./50% RH or after 5 days at 60 °C | Conversion of Form I to Form III (in words) ([2]; equilibrated at 75% RH, 60° C): convert completely to Form III in less than one day at 60 °C | Conversion of Form I to Form III (in words) ([2]; initial water activity at least 53% RH): direct conversion of Form I to Form III occurs without the formation of Form II
